Results taken from ChEMBL document CHEMBL6127146, “Exploring the Polypharmacological Potential of PCI-27483: A Selective Inhibitor of Carbonic Anhydrases IX and XII” (ACS Med Chem Lett, 2024).

Target: Carbonic anhydrase 3 (Homo sapiens, UniProt P07451)
Sequence (P07451 whole entry): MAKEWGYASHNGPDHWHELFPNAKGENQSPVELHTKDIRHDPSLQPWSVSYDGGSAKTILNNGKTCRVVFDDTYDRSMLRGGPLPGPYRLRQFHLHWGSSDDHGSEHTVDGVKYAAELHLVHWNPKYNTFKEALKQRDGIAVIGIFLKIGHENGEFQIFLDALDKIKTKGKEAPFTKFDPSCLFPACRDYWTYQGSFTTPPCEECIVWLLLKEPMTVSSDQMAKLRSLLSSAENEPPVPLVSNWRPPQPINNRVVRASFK
Description: Inhibition of human CA3 preincubated for 15 mins by phenol red dye based stopped flow CO2 hydration assay

SMILES: N=C(N)c1ccc2nc(-c3cc(CC(=O)N[C@@H](CC(=O)O)C(=O)O)cc(-c4cc(S(N)(=O)=O)ccc4O)c3O)[nH]c2c1 [PCI-27483]
- Ki: > 100 µM
